Tests used:
[1] = Sweetness potency at 2% sucrose solution
[2] = Sweetness potency at 1 mg/mL sucrose solution; weakly bitter
[3] = Sweetness potency at 4% sucrose solution

| Sweetness potency [1] | Compound | further results |
| --- | --- | --- |
| 200000 | N#Cc1ccc(N/C(=N\CC(=O)O)NC(c2ccccc2)c2ccccc2)cc1 | – |
| – | N/C(=N\CC(=O)O)NCC1CCCCC1 | Sweetness potency [2]: weakly bitter |
| – | N/C(=N\C(c1ccccc1)c1ccccc1)NCC(=O)O | Sweetness potency [3]: 400 |
| 200 | N/C(=N\C1CCCCCCC1)NCC(=O)O | – |
| 35000 | N#Cc1ccc(N/C(=N\CC(=O)O)NCC2CCCCC2)cc1 | – |
| 170000 | N#Cc1ccc(N/C(=N/CC(=O)O)NC2CCCCCCC2)cc1 | – |
| – | C[C@H](/N=C(\N)NCC(=O)O)c1ccccc1 | Sweetness potency [2]: weakly bitter |
| 28000 | C[C@H](/N=C(/NCC(=O)O)Nc1ccc(C#N)cc1)c1ccccc1 | – |

Source: ChEMBL document CHEMBL1126320, “N,N'-disubstituted guanidine high-potency sweeteners” (J Med Chem, 1992)
